Laboratory results: patent US11034725B2, “Compositions and methods for treating cardiovascular disease” (Genentech, Inc., priority 2016, dated 2021)
Where “and” joins values, the source holds several entries; their conditions need not be identical. Equal values may be shown once. Entries after “also recorded” stand apart in the source; their conditions may differ. Bridge positions count the residues as written; N and C are the ends. Peptide text beside a SMILES is read from it.

Columns and labels:
LDLR ectodomain = target: T1, LDLR ectodomain (Homo sapiens, UniProt P01130); details: biolayer interferometry, Lipari et al. 2012; read-out: Kd, binding to LDLR, previously reported; cited from earlier work
T1 construct: purchased R & D Systems

PCSK9 [1] = target: T2, PCSK9 (Homo sapiens, UniProt Q8NBP7); test: Cell surface LDLR assay with HepG2 cells; format: cell-based; details: HepG2 cells; for EC50: 15 μg/mL PCSK9, 4 h, FACS; for surface LDLR levels restored: maximal restoration, percent of control without PCSK9
Experimental: HepG2 cells (ATCC; Manassas, Va.) were seeded into 48 well plates (Corning; Corning, N.Y.) at 1×10^5 cells per well in high glucose medium (DMEM, Gibco; Carlsbad, Calif.) containing 2 mM glutamine (Sigma), penicillin/streptomycin (Gibco) and 10% FBS (Sigma; St. Louis, Mo.) and incubated overnight. Then the medium was changed to DMEM containing 10% lipoprotein deficient serum (LPDS, Sigma). After 24 h, 15 μg/mL PCSK9 was incubated with peptides or Fab33 for 30 min, added to the cells and incubated at 37° C. for 4 h. Cells were rinsed with PBS and detached using Cell Dissociation Buffer in PBS (Gibco). After centrifugation, the resuspended cells were incubated with 1:20 anti LDLR antibody (Progen Biotechnik; Heidelberg, Germany) on ice for 10 min. The samples were then washed with PBS and incubated with 1:200 diluted goat anti mouse IgG (H+L) Alexa Fluor 488 (Invitrogen; Carlsbad, Calif.) on ice for 5 min. After two PBS washes, cells were re suspended in PBS containing 2.5 μg/mL of propidium iodide and analyzed on a dual laser flow cytometer (FACScan, Becton Dickinson; Franklin Lakes, N.J.). Relative fluorescence units (RFUs) were used to quantify LDLR expression levels on the HepG2 cell surface. Cell surface LDLR levels were expressed as percent of LDLR levels measured in the absence of PCSK9 (=control).
The effect of Compound 229 on PCSK9-mediated LDL receptor degradation was measured in a HepG2 cell assay as previously described (Zhang et al., J Biol Chem. 2014 Jan. 10; 289(2):942-55). Peptides at various concentrations were preincubated with 15 μg/mL PCSK9 in the presence of 0.5% DMSO for 30 min prior to the addition to cells. After a 4 h incubation, the cells were processed for measurements of LDL receptor surface levels by flow cytometry as described (Zhang et al., J Biol Chem. 2014 Jan. 10; 289(2):942-55) (FIG. 37).

PCSK9 [2] = target: T2, PCSK9; test: PCSK9/EGF(A) TR-FRET binding assay
His-EGF(A)-Fc = His-EGF(A)-Fc TR-FRET counterscreen; details: counterscreen, Example 7
PCSK9Δhelix [3] = target: T3, PCSK9Δhelix (Homo sapiens, UniProt Q8NBP7); test: Phage competition ELISA; details: binding of peptide-displaying phage to PCSK9Δhelix
T3 construct: Human PCSK9 construct M1-Q692 with an engineered TEV site (residue deletion Y166, R167); made in house; host or cells: CHO
Experimental: The sequences of selected clones were fused to the N-terminus of M13 major coat protein (p8) using Kunkel mutagenesis method (Kunkel et al., Methods Enzymol 154, 367-82). The resulting construct was transformed to E. Coli. XL1 blue, single colony was grown in 1 mL 2YT supplemented with 50 μg/mL carbenicillin, 10 μg/mL Tetracycline and M13 KO7 helper phage at 37° C. for 2 h, Kanamycin was added to final concentration of 25 μg/mL, growth was continued at 37° C. for 6 h. The culture was transferred to 30 mL 2YT supplemented with 50 μg/mL carbenicillin and 25 μg/mL kanamycin and grown at 37° C. overnight. The next day, the phage was harvested and purified using the standard protocol (Tonikian et al. Nat Protoc. 2007; 2(6):1368-86). […] The bound phage was detected with anti-M13-HRP and the ELISA signal was read at OD450 nm. […] Sub-saturating phage concentration that gave 80% of maximum binding signal was determined by the binding curve.
IC50 measurements were performed by mixing a fixed sub-saturating concentration of peptide-displaying phage with a serial dilution of synthetic peptides in PBT buffer. […] The plates were then washed 10 times with PBT buffer and the bound phage was detected by anti-M13-HRP. […]

PCSK9Δhelix [4] = target: T3, PCSK9Δhelix; test: PCSK9Δhelix/Ab20 TR-FRET binding assay; details: for IC50: TR-FRET, Example 7, read-out: PCSK9Δhelix/Ab20 IC50
PCSK9Δhelix [5] = target: T3, PCSK9Δhelix; test: Surface plasmon resonance biosensor-based affinity analysis (Example 4); format: binding; details: for Kd: Table 7, Target PCSK9Δhelix, SPR at 20° C., read-out: Kd
PCSK9 [6] = target: T2, PCSK9; test: Phage competition ELISA; format: binding; details: binding of peptide-displaying phage to PCSK9
Experimental: The sequences of selected clones were fused to the N-terminus of M13 major coat protein (p8) using Kunkel mutagenesis method (Kunkel et al., Methods Enzymol 154, 367-82). The resulting construct was transformed to E. Coli. XL1 blue, single colony was grown in 1 mL 2YT supplemented with 50 μg/mL carbenicillin, 10 μg/mL Tetracycline and M13 KO7 helper phage at 37° C. for 2 h, Kanamycin was added to final concentration of 25 μg/mL, growth was continued at 37° C. for 6 h. The culture was transferred to 30 mL 2YT supplemented with 50 μg/mL carbenicillin and 25 μg/mL kanamycin and grown at 37° C. overnight. The next day, the phage was harvested and purified using the standard protocol (Tonikian et al. Nat Protoc. 2007; 2(6):1368-86). The serially diluted phage solution was applied to the biotinylated PCSK9 and biotinylated PCSK9Δhelix that had been immobilized for 15 min on a 384-well MaxiSorp ImmunoPlate previously coated with 5 μg/mL NeutrAvidin and blocked with Block buffer. The plate was incubated at 4° C. for 1 h, washed 10 times with PT buffer (PBS, 0.05% Tween® 20). The bound phage was detected with anti-M13-HRP and the ELISA signal was read at OD450 nm. The background was ELISA signal that the phage directly bound to NeutrAvidin-coated plate. The data was plotted and the curve fitted with KaleidaGraph. Sub-saturating phage concentration that gave 80% of maximum binding signal was determined by the binding curve.
IC50 measurements were performed by mixing a fixed sub-saturating concentration of peptide-displaying phage with a serial dilution of synthetic peptides in PBT buffer. The mixture was added to plates coated with PCSK9 and PCSK9Δhelix and incubated for 1 h at room temperature. The plates were then washed 10 times with PBT buffer and the bound phage was detected by anti-M13-HRP. The data was plotted, curve fitted and IC50 derived by use of KaleidaGraph. All measurements were repeated 3 times independently.

PCSK9 [7] = target: T2, PCSK9; details: Zhang et al. 2014; cited from earlier work

For “wildtype PCSK9: wildtype proprotein convertase subtilisin/kexin type 9”, the Kd (LDLR ectodomain) is listed as 130 nM and 170 nM.

For “Ac-TVFTSWEEYLDWVGSGDLMPWNLVRIGLLR-NH2 [Compound 20]”, the EC50 (PCSK9 [1]) was 1000 to 5000 nM, the “surface LDLR levels restored” value (PCSK9 [1]) was 100% and the “inhibition in the PCSK9/EGF(A) binding assay” value (PCSK9 [2]) was “significantly improved relative to Pep2-8”. For the same molecule, the IC50 (His-EGF(A)-Fc) was greater than 50 µM, the “IC50 in phage competition ELISA” value (PCSK9Δhelix [3]) was “single digit nanomolar range” and the “inhibition in the PCSK9Δhelix/Ab20 binding assay” value (PCSK9Δhelix [4]) was “low nanomolar concentrations”. The IC50 (PCSK9Δhelix [4]) was 1 nM, the “Kd range for PCSK9Δhelix binding” value (PCSK9Δhelix [5]) was “sub-nanomolar range” and the Kd (PCSK9Δhelix [5]) was 0.366 nM. The “IC50 in phage competition ELISA” value (PCSK9 [6]; listed as Pep2-8_K9gvpep7) was “low nanomolar range; also recorded: single digit nanomolar range”.

For CC[C@H](C)[C@@H]1NC(=O)[C@H](CCCNC(=N)N)NC(=O)[C@H](CCC(N)=O)NC(=O)[C@H](CC(C)C)NC(=O)[C@H](CC(N)=O)NC(=O)[C@H](Cc2c[nH]c3ccccc23)NC(=O)[C@@H]2CCCN2C(=O)[C@H](CC(C)C)NC(=O)[C@H](CCCNC(=N)N)NC(=O)[C@@H](NC(=O)CNC(=O)[C@H](CO)NC(=O)CNC(=O)[C@@H](NC(=O)[C@H](Cc2c[nH]c3ccccc23)NC(=O)[C@H](CC(=O)O)NC(=O)[C@H](CC(C)C)NC(=O)[C@H](Cc2ccc(O)cc2)NC(=O)[C@H](CCC(=O)O)NC(=O)[C@H](CCC(=O)O)NC(=O)[C@H](Cc2c[nH]c3ccccc23)NC(=O)[C@H](CO)NC(=O)[C@@H](NC(=O)[C@H](Cc2ccccc2)NC(=O)[C@@H](NC(=O)[C@@H](NC(C)=O)[C@@H](C)O)C(C)C)[C@@H](C)O)C(C)C)CSSC[C@@H](C(N)=O)NC(=O)[C@@H]2CCCN2C(=O)[C@H](CC(C)C)NC(=O)CNC1=O [Compound 19] (Ac-TVFTSWEEYLDWVGSGCRLPWNLQRIGLPC-NH2; disulfide 17-30), the EC50 (PCSK9 [1]) was roughly 500 nM, the “surface LDLR levels restored” value (PCSK9 [1]) was 100% and the “inhibition in the PCSK9/EGF(A) binding assay” value (PCSK9 [2]) was “potent inhibitor”. The IC50 (PCSK9 [2]; TR-FRET, Example 7, read-out: PCSK9/EGF(A) IC50) was 9 nM, the IC50 (His-EGF(A)-Fc) was greater than 50 µM and the “IC50 in phage competition ELISA” value (PCSK9Δhelix [3]) was “single digit nanomolar range”. For the same molecule, the “inhibition in the PCSK9Δhelix/Ab20 binding assay” value (PCSK9Δhelix [4]) was “potent inhibitors”, the IC50 (PCSK9Δhelix [4]) was 2 nM and the “Kd range for PCSK9Δhelix binding” value (PCSK9Δhelix [5]) was “sub-nanomolar range”. For the same molecule, the Kd (PCSK9Δhelix [5]) was 0.0989 nM and the “IC50 in phage competition ELISA” value (PCSK9 [6]; listed as Pep2-8_K9gvpep4) was “low nanomolar range; also recorded: single digit nanomolar range”.

For Ac-TAFTSWEEYLDWV-NH2 [Pep2-8V2A], the “reduction of affinity for PCSK9 versus Pep2-8” value (PCSK9 [7]) is given as “about 10 fold”.
